Test results taken from the NIST ThermoML archive (doi:10.1021/je501041r).

Assay: xn = mol fraction of the nth substance listed
Conditions: 101 kPa, Liquid; for viscosity: Capillary tube (Ostwald / Ubbelohde) method; for mass density: Vibrating tube method

CCCCCO [pentan-1-ol] + CC(C)CC(C)(C)C
Conditions | mass density [kg/m3] | viscosity [mPa·s]
298.15 K, x2 = 0 | 810.59 | 3.458
298.15 K, x2 = 0.1004 | 794.33 | 2.615
298.15 K, x2 = 0.2003 | 778.35 | 1.984
298.15 K, x2 = 0.3 | 763.77 | 1.525
298.15 K, x2 = 0.4 | 749.96 | 1.189
298.15 K, x2 = 0.5 | 737.18 | 0.948
298.15 K, x2 = 0.5999 | 725.64 | 0.785
298.15 K, x2 = 0.6998 | 714.97 | 0.663
298.15 K, x2 = 0.7999 | 705.08 | 0.579
298.15 K, x2 = 0.8996 | 696.03 | 0.518
303.15 K, x2 = 0 | 807.89 | 3.007
303.15 K, x2 = 0.1004 | 790.55 | 2.291
303.15 K, x2 = 0.2003 | 774.49 | 1.758
303.15 K, x2 = 0.3 | 759.83 | 1.365
303.15 K, x2 = 0.4 | 745.97 | 1.076
303.15 K, x2 = 0.5 | 733.13 | 0.867
303.15 K, x2 = 0.5999 | 721.55 | 0.724
303.15 K, x2 = 0.6998 | 710.84 | 0.623
303.15 K, x2 = 0.7999 | 700.93 | 0.552
303.15 K, x2 = 0.8996 | 691.85 | 0.49
308.15 K, x2 = 0 | 804.16 | 2.625
308.15 K, x2 = 0.1004 | 786.73 | 2.038
308.15 K, x2 = 0.2003 | 770.6 | 1.562
308.15 K, x2 = 0.3 | 755.86 | 1.225
308.15 K, x2 = 0.4 | 741.94 | 0.977
308.15 K, x2 = 0.5 | 729.05 | 0.797
308.15 K, x2 = 0.5999 | 717.43 | 0.671
308.15 K, x2 = 0.6998 | 706.68 | 0.579
308.15 K, x2 = 0.7999 | 696.74 | 0.513
308.15 K, x2 = 0.8996 | 687.64 | 0.466
313.15 K, x2 = 0 | 800.4 | 2.317
313.15 K, x2 = 0.1004 | 782.88 | 1.806
313.15 K, x2 = 0.2003 | 766.66 | 1.403
313.15 K, x2 = 0.3 | 751.85 | 1.105
313.15 K, x2 = 0.4 | 737.87 | 0.89
313.15 K, x2 = 0.5 | 724.94 | 0.734
313.15 K, x2 = 0.5999 | 713.27 | 0.624
313.15 K, x2 = 0.6998 | 702.49 | 0.549
313.15 K, x2 = 0.7999 | 692.51 | 0.482
313.15 K, x2 = 0.8996 | 683.4 | 0.438
318.15 K, x2 = 0 | 796.59 | 2.029
318.15 K, x2 = 0.1004 | 778.99 | 1.618
318.15 K, x2 = 0.2003 | 762.69 | 1.255
318.15 K, x2 = 0.3 | 747.8 | 1.001
318.15 K, x2 = 0.4 | 733.76 | 0.815
318.15 K, x2 = 0.5 | 720.78 | 0.679
318.15 K, x2 = 0.5999 | 709.06 | 0.582
318.15 K, x2 = 0.6998 | 698.25 | 0.518
318.15 K, x2 = 0.7999 | 688.24 | 0.454
318.15 K, x2 = 0.8996 | 679.11 | 0.422
323.15 K, x2 = 0 | 792.75 | 1.795
323.15 K, x2 = 0.1004 | 775.05 | 1.443
323.15 K, x2 = 0.2003 | 758.67 | 1.131
323.15 K, x2 = 0.3 | 743.71 | 0.914
323.15 K, x2 = 0.4 | 729.61 | 0.749
323.15 K, x2 = 0.5 | 716.58 | 0.63
323.15 K, x2 = 0.5999 | 704.82 | 0.548
323.15 K, x2 = 0.6998 | 693.98 | 0.486
323.15 K, x2 = 0.7999 | 683.93 | 0.428
323.15 K, x2 = 0.8996 | 674.79 | 0.393
